Source: US12680065B2, “Artificial placenta and methods of preparation” (The Trustees of the University of Pennsylvania, priority 2015, dated 2026)

What was measured:
BeWo cells = test: Forskolin-induced trophoblast syncytialization in the microfluidic device (immunofluorescence); type: cell-based, human
Protocol: (§1) Following the formation of a confluent epithelial monolayer on the membrane surface in the upper microchannel, the apical side of the epithelium can be treated with forskolin to activate the protein kinase A pathway in the cultured trophoblasts. A stock solution of forskolin (Sigmal 5 mg/mL in DMSO) can be diluted with F-12K medium to a final concentration of 50 uM and perfused through the upper microchannel. After 72 hours of forskolin treatment, the trophoblast cells can be fixed in 4% PFA, permeabilized in Triton-X 100, and then incubated with 2% BSA in PBS for immunofluorescence staining. To analyze changes in junctional protein expression, the samples can be incubated with anti-E-cadherin antibody (Life Technologies) in 2% BSA, followed by secondary antibody and DAPI. Additionally, media perfusate can be collected at 48, 72, and 96 hours from both untreated and forskolin-treated devices. The collected samples can be analyzed using a human chorionic gonadotropin beta (β-hCG) ELISA kit (Abcam) to quantify the levels of β-hCG produced by the trophoblast population at each time point.
Accordingly, when the BeWo cells in the maternal compartment are exposed to forskolin, they can begin to undergo cell-cell fusion as illustrated by nuclear aggregation that can be evident at 72 hours of forskolin treatment (FIG. 9B). […]

trophoblast cells = test: β-hCG ELISA of maternal compartment perfusate; type: cell-based, human; conditions: 50 uM forskolin; no detectable β-hCG in the absence of forskolin
Protocol: as §1, with “([…]” for “(Sigmal”, “point. […] Accordingly, the production of the […] of hCG in the maternal compartment can be measured to quantitatively examine syncytialization. […]” for “point.”

C=C[C@@]1(C)CC(=O)[C@]2(O)[C@@]3(C)[C@@H](O)CCC(C)(C)[C@@H]3[C@H](O)[C@H](OC(C)=O)[C@@]2(C)O1 [forskolin]
fraction of BeWo population undergoing cell-cell fusion (nuclear aggregation) (BeWo cells; 50 uM forskolin in upper microchannel, 72 hours): approximately 50% | effect on cell viability (BeWo cells; 50 uM forskolin, BeWo cells in maternal compartment): does not necessarily exert deleterious effects on cell viability | time to production of hCG by trophoblast cells (trophoblast cells): ≤ 48 h
